Assay results from patent publication US8227516B2, “Compounds as histone deacetylase inhibitors” (4SC Discovery GmbH, priority 2002, dated 2012).
Read-outs that look alike come from different tables or passages of the source.

What was measured:
[1] = system: BCL-XL expression in K562 cells; experiment: Protein expression profiling, Western Blot: BCL-XL down-regulation; assay type: cell-based; conditions: 36 hours
Excerpt: (§1) Protein expression profiling. The expression pattern induced by histone deacetylase inhibitors can be monitored by Western Blot analysis with antibodies against p21 and BCL-XL using whole cell extracts of cells treated with the respective compounds at the indicated concentrations. Modulation of protein expression is exemplified by the induction of expression of the cell cycle inhibitor/tumor suppressor p21 and the suppression of expression of the anti-apoptotic molecule BCL-XL.

BV-173 cells = experiment: Measurement of apoptosis, FACS sub-G1 by propidium iodide staining; assay type: cell-based; conditions: with Z-VAD, 24 hours
Excerpt: Measurement of Apoptosis. FACS analysis of the cell cycle by propidium iodide (PI) staining. The cell cycle can be divided into four different sections: During G0/1-phase cells are in senescence or proliferate, in S-phase cells start replicating their DNA, and during G2- and M-phase cells undergo mitosis. […] Degradation of DNA is a marker for apoptosis. The sub-G1 area indicates the hypodiploid DNA peak corresponding to cells with fragmented DNA undergoing apoptosis Using a dye that intercalates with DNA (such as propidium iodide—PI) the cellular DNA content was determined. Between 5×10^5-1×10^6 cells were seeded out in cell culture dishes and treated for the desired time with the desired amount of test compound. After the incubation cells were harvested, washed in cold PBS, and the cell pellet was resuspended in 1 ml 70% ethanol (−20° C.). These cell pellets may be shelved for several month.
For PI staining 3 ml cold sodium citrate solution (38 mM, pH 7.4) was added, cells were pelleted and stained with 500 μl sodium citrate solution (38 mM, pH 7.4) containing 50 μg/ml PI and 5 μg/ml RNase. After a 30 minute incubation time at 37° C. in darkness, cells were analyzed via FACS analysis. The sub-G1-peak constitutes the amount of apoptotic cells.

[2] = system: HDAC activity in nuclear extracts from HeLa cells; experiment: In vitro HDAC activity in HeLa nuclear extracts (Fluor de Lys); assay type: biochemical; conditions: read-out: concentration giving 50% reduction of HDAC activity
Excerpt: Relative HDAC activity is shown as percent of activity of untreated nuclear extracts.
(§2) In vitro inhibition of recombinant HDAC's. The determination of histone deacetylase activity in HeLa nuclear extracts or recombinant HDAC proteins from High5 insect cells is based on the specific deacetylation of an artificial substrate (Fluor de Lys, Biomol). The substrate turn over may be detected and quantified by fluorometry. By addition of a potential HDAC inhibitor the hydrolysis of the substrate is constrained resulting in a decreased fluorometric signal. IC50 values may be calculated from dose-response curves.
(§3) The assay is separated in two steps: in the first step the substrate (Fluor de Lys/Biomol KI-104) is hydrolysed by histone deacetylases. In step two HDAC activity is terminated and the fluorophore is activated by the addition of a developer (Developer/Biomol KI-105). Nuclear extracts from HeLa cells (Biomol KI-140) or recombinant proteins and the potential HDAC inhibitor are mixed with reaction buffer (Biomol KI143) to a total volume of 25 μl per well of a 96 well plate. 25 μl substrate (1:100 dilution in reaction buffer) per well are added to start the reaction. A negative control without histone deacetylase activity and a positive control without HDAC inhibitor are treated likewise. The reaction is stopped after 15-60 min. by adding 50 μl developer (1:20 dilution in reaction buffer). After another 15 min. incubation time at room temperature the fluorescence signal is stable for 60 min and may be detected by a fluorescence reader (excitation filter: 390 nm, emission filter: 460 nm).

[3] = system: histone H4 acetylation in 293T cells; experiment: Induction of histone H4 hyperacetylation, Western Blot; assay type: cell-based; conditions: 6 hours
Excerpt: Induction of histone hyperacetylation. These acetylated histones can be detected by Western Blot analysis of whole cell extracts from histone deacetylase inhibitor-treated 293T cells using antibodies specific for the acetylated N-terminal lysine residues of histones H4 (Göttlicher et al., 2001, EMBO J. 20, 6969-78).
Since histone deacetylase inhibitors shift the enzymatic balance between histone acetyl transferases (HAT's) and histone deacetylases (HDAC's) towards HAT's by blocking HDAC's, they induce the accumulation of N-terminally hyperacetylated histones H4. This can be seen in FIG. 2 by the induction of histone hyperacetylation after treatment of 293T cells for 6 hours with Compounds 1, 2 and 3. Hyperacetylation can be seen with Compounds 1 and 2 at a concentration as low as 1.6 μM with a maximum induction at […], whereas compound 3 induces hyperacetylation starting at 320 nM.

[4] = system: human tumor cell lines of breast, colon, pancreas and prostate origin; experiment: Growth inhibition of tumor cell lines (SRB assay); assay type: cell-based; conditions: various cancer cell lines, 72 hours
Description: Growth inhibition of tumor cell lines. The reduction in cellular biomass was measured by SRB-assay. For this assay cells were seeded in 96 well culture dishes at densities between 3000 and 8000 cells per well. After recovery of 24 hours cells were cultured for 48-72 hours in the absence or presence of the indicated concentrations of compounds. Synergistic reduction in total cellular biomass was assayed through SRB-assay by adding the compounds in the medium at the indicated concentrations and cultivate the cells for further 48 hours.
Cells were fixed with cold Trichloracetat (TCA) producing a final TCA concentration of 10%. After 1 hour of incubation at 4° C. the cells were washed five times with water and air dried. Fixed cells were stained for 30 minutes with 0.4% (wt/vol) Sulforhodamine B (SRB) dissolved in 1% acetic acid and washed four times with 1% acetic acid to remove unbound dye. After air drying bound dye was solubilized with 10 mM unbuffered Tris base (pH 10.5) for 5 minutes. Optical densities (OD) were read on a Molecular Devices Versa Max tunable microplate reader at 520-550 nm. Four test wells for each dose-response were set in parallel with 12 control wells per cell line. Measurement of the cell population density at time 0 (To; the time at which the drug was added) was also made from 12 reference wells of cells fixed with TCA just prior to drug addition to the test plates. Background OD of complete medium with 5% FBS fixed and stained as described above was also determined in 12 separate wells. From the unprocessed OD data from each microtiter plate the background OD measurements (i.e. OD of complete medium plus stain and OD of cells at T0) were subtracted thus giving the reduction of cellular biomass of the cells.

[5] = system: p21 expression in K562 cells; experiment: Protein expression profiling, Western Blot: p21 induction; assay type: cell-based; conditions: 36 hours
Excerpt: as §1

[6] = system: HDAC-dependent transcriptional repression in reporter cell line UAS TK-luc (293T cells); experiment: Transcriptional reporter gene assay (UAS TK luciferase, Gal4-repressor fusion); assay type: cell-based; conditions: for concentration at which induction of luciferase reporter gene expression starts: 24 hours treatment; for fold induction at 8 µM: Homo sapiens, HEK-293T, read-out: fold induction of luciferase reporter gene expression
Description: Depicted is the fold induction of luciferase expression after treatment of cells at the indicated concentrations of Compounds 1, 2 and 3.
Transcriptional reporter gene assay. The transcriptional assay for repressor activity exploits activation and derepression of a Gal4-dependent reporter gene (Hildebrand et al., 2001, J Biol Chem 276, 9889-95; Maurer et al., 2002, Blood 99, 2647-52). This assay is performed with specifically constructed permanent cell lines. 293T cell were stably transfected with a UAS TK luciferase reporter plasmid (Heinzel et al., 1997 Nature 387, pp 43-48) and an expression plasmid for the Gal4 DNA binding domain fused to an HDAC-dependent repressor molecule. While Gal4 fusion proteins repress this activity, HDAC inhibitors induce relief of this repression which can be detected as an increase in reporter gene activity (e.g. by luciferase activity detection assay).
Addition of Compounds 1, 2 and 3 relieve this repression as measured by increased expression and activity of luciferase in lysates of treated cells after 24 hours. Both, Compound 1 and 2 induce luciferase reporter gene expression after stimulation of cells for 24 hours starting at a concentration of 8 μM (2-3 fold) with a maximum induction of more than 20 fold at 200 μM. Compound 3, however, induces expression of reporter gene already at a concentration of 1.6 μM with a maximum induction of almost 40 fold at 40 μM.

recombinant HDAC8 = molecular target: T1, recombinant HDAC8 (Homo sapiens, UniProt Q9BY41); experiment: In vitro inhibition of recombinant HDAC8 (Fluor de Lys); assay type: biochemical; conditions: read-out: concentration giving 50% reduction of HDAC activity
T1 construct: made in house; host or cells: High5 insect cells
T1 sequence (Q9BY41 1-377): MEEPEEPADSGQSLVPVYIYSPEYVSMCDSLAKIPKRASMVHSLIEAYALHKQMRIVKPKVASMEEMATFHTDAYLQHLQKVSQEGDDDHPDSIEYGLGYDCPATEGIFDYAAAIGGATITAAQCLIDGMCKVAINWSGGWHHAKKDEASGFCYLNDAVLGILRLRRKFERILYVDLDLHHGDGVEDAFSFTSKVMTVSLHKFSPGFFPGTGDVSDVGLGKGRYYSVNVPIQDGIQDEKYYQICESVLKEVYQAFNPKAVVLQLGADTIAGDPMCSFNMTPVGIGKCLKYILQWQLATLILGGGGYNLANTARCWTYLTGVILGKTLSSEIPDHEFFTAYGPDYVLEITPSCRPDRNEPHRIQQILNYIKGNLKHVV
Excerpt: (§4) Relative HDAC activity is shown as percent of activity of untreated HDAC enzymes.
as §2
as §3, with “A negative control without histone deacetylase activity and a positive control without HDAC inhibitor are treated likewise. The reaction is stopped after 15-60 min. by adding 50 μl developer (1:20 dilution in reaction buffer).” left out

recombinant HDAC1 = molecular target: T2, recombinant HDAC1 (Homo sapiens, UniProt Q13547); experiment: In vitro inhibition of recombinant HDAC1 (Fluor de Lys); assay type: biochemical; conditions: read-out: concentration giving 50% reduction of HDAC activity
T2 construct: made in house; host or cells: High5 insect cells
T2 sequence (Q13547 whole entry, species assumed): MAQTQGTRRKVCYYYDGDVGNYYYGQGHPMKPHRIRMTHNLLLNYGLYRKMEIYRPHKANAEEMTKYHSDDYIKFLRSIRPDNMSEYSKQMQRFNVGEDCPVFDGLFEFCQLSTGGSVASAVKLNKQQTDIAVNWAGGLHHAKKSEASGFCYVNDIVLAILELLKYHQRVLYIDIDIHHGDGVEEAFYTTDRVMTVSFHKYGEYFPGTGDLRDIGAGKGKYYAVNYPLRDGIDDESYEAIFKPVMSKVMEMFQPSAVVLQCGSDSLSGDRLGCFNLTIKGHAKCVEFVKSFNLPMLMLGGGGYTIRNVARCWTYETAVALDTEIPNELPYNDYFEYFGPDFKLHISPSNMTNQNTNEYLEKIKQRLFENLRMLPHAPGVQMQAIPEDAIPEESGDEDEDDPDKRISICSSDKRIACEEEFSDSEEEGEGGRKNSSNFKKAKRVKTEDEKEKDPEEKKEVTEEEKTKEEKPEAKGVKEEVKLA
Excerpt: as §4, §2
as §3, with “A negative control without histone deacetylase activity and a positive control without HDAC inhibitor are treated likewise. The reaction is stopped after 15-60 min. by adding 50 μl developer (1:20 dilution in reaction buffer).” left out

recombinant HDAC6 = molecular target: T3, recombinant HDAC6 (Homo sapiens, UniProt Q9UBN7); experiment: In vitro inhibition of recombinant HDAC6 (Fluor de Lys); assay type: biochemical; conditions: read-out: concentration giving 50% reduction of HDAC activity
T3 construct: made in house; host or cells: High5 insect cells
T3 sequence (Q9UBN7 1-1215): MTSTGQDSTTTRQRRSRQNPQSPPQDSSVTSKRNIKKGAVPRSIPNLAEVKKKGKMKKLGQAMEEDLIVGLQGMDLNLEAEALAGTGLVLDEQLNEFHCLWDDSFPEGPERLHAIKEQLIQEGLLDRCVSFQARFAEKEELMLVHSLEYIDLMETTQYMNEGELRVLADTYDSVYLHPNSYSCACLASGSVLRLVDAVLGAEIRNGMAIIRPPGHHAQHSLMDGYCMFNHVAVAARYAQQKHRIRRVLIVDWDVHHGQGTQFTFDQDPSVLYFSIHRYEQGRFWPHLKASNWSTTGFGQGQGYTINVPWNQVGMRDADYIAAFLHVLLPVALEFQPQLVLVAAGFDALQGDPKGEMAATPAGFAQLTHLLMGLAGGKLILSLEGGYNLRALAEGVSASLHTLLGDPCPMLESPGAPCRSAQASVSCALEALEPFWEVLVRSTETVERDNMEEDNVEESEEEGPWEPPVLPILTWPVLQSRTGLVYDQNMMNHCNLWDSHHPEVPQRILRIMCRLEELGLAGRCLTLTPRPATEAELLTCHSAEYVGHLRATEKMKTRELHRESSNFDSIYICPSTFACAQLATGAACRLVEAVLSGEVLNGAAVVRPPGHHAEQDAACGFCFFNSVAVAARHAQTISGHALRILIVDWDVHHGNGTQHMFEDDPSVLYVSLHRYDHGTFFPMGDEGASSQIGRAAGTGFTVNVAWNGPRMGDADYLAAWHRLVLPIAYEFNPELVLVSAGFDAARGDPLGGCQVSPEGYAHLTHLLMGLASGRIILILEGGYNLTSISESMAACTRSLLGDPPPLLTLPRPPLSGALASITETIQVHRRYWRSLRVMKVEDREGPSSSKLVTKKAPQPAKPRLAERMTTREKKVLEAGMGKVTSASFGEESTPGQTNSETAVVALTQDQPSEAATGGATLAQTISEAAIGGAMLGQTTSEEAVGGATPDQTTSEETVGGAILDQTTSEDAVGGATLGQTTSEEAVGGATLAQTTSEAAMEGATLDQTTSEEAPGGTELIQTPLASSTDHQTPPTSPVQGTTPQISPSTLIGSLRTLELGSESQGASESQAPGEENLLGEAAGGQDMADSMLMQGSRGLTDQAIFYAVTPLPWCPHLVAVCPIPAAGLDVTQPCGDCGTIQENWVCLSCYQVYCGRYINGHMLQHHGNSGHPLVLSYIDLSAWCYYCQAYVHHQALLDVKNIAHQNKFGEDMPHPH
Excerpt: as §4, §2
as §3, with “A negative control without histone deacetylase activity and a positive control without HDAC inhibitor are treated likewise. The reaction is stopped after 15-60 min. by adding 50 μl developer (1:20 dilution in reaction buffer).” left out

[7] = read-out: concentration inducing 50% growth arrest (IC50), mean over cell lines
[8] = read-out: concentrations inducing 50% growth arrest (IC50), range over cell lines

Compound | concentration inducing BCL-XL downregulation [1] [µM] | apoptotic process in the presence of pan-caspase inhibitor Z-VAD (BV-173 cells) | IC50 [2] [µM] | concentration of maximum induction of histone H4 hyperacetylation [3] [µM] | lowest concentration at which histone H4 hyperacetylation is seen [3] [µM] | IC50 [4, 7] [µM] | IC50 [4, 8] [µM] | concentration inducing p21 expression [5] [µM] | concentration at which induction of luciferase reporter gene expression starts [6] [µM] | fold induction at 8 µM ([6]; 24 hours) | concentration at which histone H4 hyperacetylation starts [3] [nM] | IC50 (recombinant HDAC8) [µM] | IC50 (recombinant HDAC1) [µM] | maximum induction of luciferase reporter gene expression ([6]; at 40 μM, 24 hours) [fold] | IC50 (recombinant HDAC6) [µM]
O=C(CCC1CCCCC1)NO [Compound 2, 3-Cyclohexyl-N-hydroxy-propionamide] | 8 | completely blocked | 6.1 | 40 | 1.6 | 15 | 5 to 26 | 8 | 8 | 2 to 3 | – | – | – | – | –
O=C(CCC1CCCC1)NO [Compound 1, 3-Cyclopentyl-N-hydroxy-propionamide] | 200 | completely blocked | 14.7 | 40 | 1.6 | 33 | 8 to 70 | 40 | 8 | 2 to 3 | – | – | – | – | –
O=C(C=CC1CCCCC1)NO [Compound 3, 3-Cyclohexyl-N-hydroxy-acrylamide] | 8 | completely blocked | 0.9 | – | – | 2.6 | 0.5 to 8 | 8 | 1.6 | – | 320 | 0.3 to 0.4 | 0.3 to 0.4 | ~40 | 0.3 to 0.4
